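A five-concentration, 48-hour dose response in 96-well plates underlies each endpoint, interpolated linearly between surrounding concentrations. GI50 is the concentration that inhibits growth by half.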 Calls of active or inactive are those of the source. Cut-off read from the data, not from the text of the source: active = GI50 up to about 1.1 µM and inactive = higher.

Test systems include NCI-H522; EKVX; DU-145; M14; SNB-19; NCI-H460; HOP-62; SW-620; SR; NCI-H23; LOX IMVI; U-251; MDA-N; CAKI-1; SF-295; OVCAR-3; SN12C; HL-60; HOP-92; UACC-257.
Common to all, as to assay: NCI-60 cell line screen, 48 h

Consider `COc1ccc(-c2cc(-c3ccco3)c(C#N)c(=S)n2C2OC(COC(C)=O)C(OC(C)=O)C(OC(C)=O)C2OC(C)=O)cc1` (stereo not drawn), for which the GI50 with NCI-H522 was 4.56 µM (inactive); in the assay with EKVX, 13.5 µM (inactive); in the assay on DU-145, 7.94 µM (inactive); with M14, 5.27 µM (inactive); in the assay on SNB-19, 5.66 µM (inactive); in the assay with NCI-H460, 5.11 µM (inactive). Also, the GI50 with HOP-62 was 2.61 µM (inactive); in the assay on SW-620 it was 6.19 µM (inactive); in the assay on SR, > 10 µM (inactive); in the assay with NCI-H23, 9.71 µM (inactive); in the assay with LOX IMVI, 3.64 µM (inactive); in the assay with U-251, 5.94 µM (inactive). Further, the GI50 in the assay on MDA-N was 5.5 µM (inactive); with CAKI-1, 3.98 µM (inactive); in the assay with SF-295, 1.96 µM (inactive); with OVCAR-3, 7.13 µM (inactive); in the assay on SN12C, 10.1 µM (inactive); in the assay on HL-60, 3.98 µM (inactive). In addition, the GI50 in the assay on HOP-92 is 4.02 µM (inactive).
Consider `C/C(=C\CBr)CCC(Br)C(C)(C)Br` (stereo not drawn), for which the GI50 in the assay with NCI-H522, in the assay with EKVX, in the assay with DU-145, in the assay on UACC-257, with M14 and with SNB-19 was > 100 µM (inactive) in each case. The GI50 in the assay with NCI-H460, in the assay on HOP-62, in the assay with SW-620, in the assay with SR, in the assay on NCI-H23 and in the assay on U-251 was > 100 µM (inactive) throughout. In addition, the GI50 in the assay on MDA-N, with SF-295, in the assay on OVCAR-3, in the assay on SN12C, in the assay with HL-60 and in the assay with HOP-92 was > 100 µM (inactive) throughout.
Take `CCOC(=O)/C=C/C(=O)O/C=C/[N+](=O)[O-]`: the GI50 with NCI-H522, in the assay with EKVX, in the assay with DU-145, with UACC-257, in the assay with M14 and with NCI-H460 was > 100 µM (inactive) each time. The GI50 with HOP-62, with SW-620, in the assay on SR, in the assay on NCI-H23, with LOX IMVI and in the assay on U-251 was > 100 µM (inactive) each time. Further, the GI50 with MDA-N is > 100 µM (inactive); in the assay with CAKI-1, 33.3 µM (inactive); in the assay on SF-295 it was > 100 µM (inactive); with OVCAR-3, > 100 µM (inactive); in the assay on SN12C it was > 100 µM (inactive); in the assay on HL-60, > 100 µM (inactive). The GI50 with HOP-92 is > 100 µM (inactive).
Regarding `O=C1NC(N2CCCCC2)=N/C1=C\c1cccs1`, the GI50 in the assay on NCI-H522, in the assay with EKVX, in the assay on DU-145, in the assay with UACC-257, in the assay on M14 and with SNB-19 was > 100 µM (inactive) in each case. Besides, the GI50 in the assay on HOP-62, in the assay on SW-620, in the assay on SR, with NCI-H23, in the assay with LOX IMVI and with U-251 was > 100 µM (inactive) throughout. The GI50 in the assay with MDA-N, in the assay with CAKI-1, with SF-295, in the assay with OVCAR-3, in the assay on SN12C and in the assay on HL-60 was > 100 µM (inactive) each time. Besides, the GI50 in the assay with HOP-92 is > 100 µM (inactive).
As to `COC(=O)C(I(OS(=O)(=O)c1ccc(C)cc1)c1ccccc1)=P(c1ccccc1)(c1ccccc1)c1ccccc1`, the GI50 with NCI-H522 is 13 µM (inactive); in the assay with EKVX, 23.7 µM (inactive); in the assay on DU-145, 15.9 µM (inactive); with UACC-257, 17.9 µM (inactive); in the assay on M14 it was 15.8 µM (inactive); with SNB-19 it was 33.9 µM (inactive). Also, the GI50 with NCI-H460 is 29.9 µM (inactive); in the assay on HOP-62 it was 19.3 µM (inactive); in the assay on SR it was 19.4 µM (inactive); in the assay on NCI-H23, 16.8 µM (inactive); with U-251 it was 20.7 µM (inactive); in the assay with MDA-N, 14.1 µM (inactive). Further, the GI50 was 40.2 µM (inactive) in the assay with CAKI-1; 30.1 µM (inactive) in the assay on SF-295; 16.4 µM (inactive) in the assay with OVCAR-3; 43.2 µM (inactive) in the assay on SN12C; 15.1 µM (inactive) in the assay on HL-60; 14.7 µM (inactive) in the assay on HOP-92.
With `C[C@@H]1CCC2[C@@H](C)[C@@H](OCCO[C@H]3OC4O[C@@]5(C)CCC6[C@H](C)CCC([C@H]3C)[C@@]46OO5)OC3O[C@@]4(C)CCC1[C@]32OO4` (stereo partly drawn), the GI50 was 0.0689 µM (active) with NCI-H522; 1.48 µM (inactive) in the assay on EKVX; 0.171 µM (active) in the assay on DU-145; 0.39 µM (active) in the assay on UACC-257; 0.379 µM (active) in the assay with M14; 0.151 µM (active) with NCI-H460. Moreover, the GI50 in the assay on HOP-62 is 1.34 µM (inactive); in the assay on SW-620, 0.0537 µM (active); in the assay with SR, 0.0345 µM (active); in the assay with NCI-H23 it was 0.115 µM (active); in the assay on LOX IMVI, 0.0565 µM (active); with U-251, 0.0902 µM (active). For the same compound, the GI50 with MDA-N was 0.219 µM (active); with CAKI-1 it was 0.0652 µM (active); with SF-295, 0.405 µM (active); in the assay on SN12C it was 0.541 µM (active); in the assay with HL-60, 0.0583 µM (active); in the assay with HOP-92, 2.64 µM (inactive).
Regarding `Cc1ccc(S(=O)(=O)NC(=O)NCCC(=O)O)cc1`, the GI50 with NCI-H522, with DU-145, in the assay on UACC-257, with M14, in the assay with SNB-19 and with NCI-H460 was > 100 µM (inactive) each time. Further, the GI50 was > 100 µM (inactive) in the assay on HOP-62; > 100 µM (inactive) in the assay on SW-620; > 100 µM (inactive) in the assay with SR; 19.3 µM (inactive) with NCI-H23; > 100 µM (inactive) with LOX IMVI; > 100 µM (inactive) with U-251. In addition, the GI50 in the assay with MDA-N, in the assay with SF-295, in the assay on SN12C, in the assay with HL-60 and in the assay with HOP-92 was > 100 µM (inactive) in each case.
As to `COc1cc(C2C(Cl)C(=O)N2c2c(C)n(C)n(-c3ccccc3)c2=O)ccc1O` (stereo not drawn), the GI50 in the assay with NCI-H522 is 13.6 µM (inactive); in the assay with EKVX, 35 µM (inactive); in the assay on DU-145, 29.7 µM (inactive); in the assay on UACC-257 it was 16.4 µM (inactive); in the assay on M14, 15.7 µM (inactive); in the assay with NCI-H460, 23.6 µM (inactive). In addition, the GI50 is 23.7 µM (inactive) in the assay on HOP-62; 15 µM (inactive) in the assay with SW-620; 12 µM (inactive) with SR; 14.7 µM (inactive) in the assay on NCI-H23; 16.5 µM (inactive) with LOX IMVI; 18 µM (inactive) in the assay with U-251. The GI50 in the assay on MDA-N is 15.6 µM (inactive); in the assay on CAKI-1, 33.6 µM (inactive); in the assay with SF-295 it was 22.2 µM (inactive); in the assay with OVCAR-3, 28.2 µM (inactive); in the assay on SN12C, 19.1 µM (inactive); with HL-60, 23.3 µM (inactive). The GI50 with HOP-92 was 21.3 µM (inactive).
With `CSc1ncc2c(n1)-c1ccccc1OC2N1CCCCC1` (stereo not drawn), the GI50 with NCI-H522 was 18.9 µM (inactive); in the assay on EKVX, 35.2 µM (inactive); in the assay with DU-145 it was 34.4 µM (inactive); in the assay with UACC-257 it was 34.6 µM (inactive); in the assay on M14, 49.3 µM (inactive); with SNB-19 it was 68.7 µM (inactive). Also, the GI50 in the assay with NCI-H460 is 30.4 µM (inactive); in the assay with SW-620 it was 40.5 µM (inactive); with SR, 18 µM (inactive); with NCI-H23, 41.7 µM (inactive); in the assay on LOX IMVI it was 21.1 µM (inactive); with U-251 it was 39 µM (inactive). The GI50 in the assay on MDA-N was 38.1 µM (inactive); in the assay with CAKI-1 it was 21.7 µM (inactive); with SF-295, 38.5 µM (inactive); in the assay on OVCAR-3 it was 38.5 µM (inactive); in the assay with SN12C, 29.8 µM (inactive); with HL-60 it was 19.7 µM (inactive). Also, the GI50 in the assay on HOP-92 is 25 µM (inactive).
Take `CC(=O)c1c(O)nnc(-c2ccc(Cl)cc2)c1-c1ccc(Cl)cc1`: the GI50 with EKVX was 53.3 µM (inactive); with DU-145, 54.8 µM (inactive); with UACC-257, 39 µM (inactive); in the assay with M14 it was 65.6 µM (inactive); in the assay with SNB-19, > 100 µM (inactive); with NCI-H460, 33 µM (inactive). In addition, the GI50 in the assay on SW-620 is 62.5 µM (inactive); in the assay on SR it was 27.9 µM (inactive); in the assay on NCI-H23 it was 69.3 µM (inactive); in the assay on LOX IMVI, 21.7 µM (inactive); with U-251, 51.9 µM (inactive); in the assay on MDA-N it was 33.7 µM (inactive). For the same compound, the GI50 in the assay with CAKI-1 is 31.8 µM (inactive); in the assay with SF-295, 46.1 µM (inactive); in the assay with OVCAR-3 it was 25.1 µM (inactive); in the assay with SN12C, 22.3 µM (inactive); with HL-60 it was 25 µM (inactive); in the assay on HOP-92, 52.7 µM (inactive).
On to `COc1cc(C2c3cc4c(cc3[C@@H](Nc3cccc(O)c3)C3COC(=O)[C@H]23)OCO4)cc(OC)c1O` (stereo partly drawn), for which the GI50 was 1.32 µM (inactive) in the assay with NCI-H522; 5.16 µM (inactive) in the assay on EKVX; 0.197 µM (active) in the assay with DU-145; 2.05 µM (inactive) in the assay with UACC-257; 2.79 µM (inactive) in the assay on M14; 3.7 µM (inactive) in the assay on SNB-19. Also, the GI50 was 0.0726 µM (active) in the assay with NCI-H460; 0.817 µM (active) with HOP-62; 2.8 µM (inactive) in the assay on SW-620; 0.191 µM (active) in the assay on SR; 1.05 µM (active) in the assay on NCI-H23; 0.703 µM (active) in the assay with LOX IMVI. Further, the GI50 in the assay with U-251 is 2.04 µM (inactive); with MDA-N, 2.7 µM (inactive); in the assay with SF-295 it was 1.09 µM (active); in the assay with OVCAR-3 it was 4.04 µM (inactive); in the assay with SN12C, 1.55 µM (inactive); in the assay with HL-60, 0.445 µM (active). In addition, the GI50 in the assay with HOP-92 is 1.32 µM (inactive).

The values are drawn from ChEMBL document CHEMBL1201862, “PubChem BioAssay data set” (2004).
